{"source": "patent US9522962B2", "about": "“Peptides, conjugates and method for increasing immunogenicity of a vaccine” (Academisch Ziekenhuis Leiden h.o.d.n. LUMC, priority 2010, dated 2016)", "key": {"[1]": {"tested_on": "antibodies in individual human sera (e.g. serum 034960)", "assay": "Tettox ELISA of biotinylated peptides on individual human sera", "assay_type": "binding", "conditions": "human serum 034960 diluted 100x", "protocol": "a 96-wells plate (preferably from Euro-Diagnostica, Arnhem, The Netherlands) is coated with streptavidin. The streptavidin coated 96 wells plate is blocked with PBS containing 5% BSA (200 μl/well, 1 h, room temperature). Subsequently, the plate is washed three times with PBS containing 0.05% TWEEN20® (polysorbate 20). A biotinylated peptide is coated by 1 h incubation at room temperature with 100 μl/well of a 2 μg/ml solution of the biotinylated peptide in PBS containing 1% BSA. The plate is washed three times with PBS containing 0.05% TWEEN20® (polysorbate 20) followed by incubation for 1 h at room temperature with 100 μl serum from […] a human subject as defined above (preferably having a high titer of anti-TTd antibodies) that had been diluted at least 100, 200, 400, 500 or 1000 times and preferably not more than 100,000, 10,000, 7,500, 5,000 or 2,500 times with PBS containing 1% BSA. Then the plate is washed three times with PBS containing 0.05% TWEEN20®(polysorbate 20). Each well is incubated for 1 h at room temperature with a HRP-conjugated IgG antibody (mouse anti-human IgG-HRP monoclonal, clone G18-145, cat no 555788, Becton Dickinson, 100 μl/well of a 1000× dilution in PBS containing 0.05% TWEEN20® (polysorbate 20)) after which the plate is washed three times with PBS containing 0.05% TWEEN20® (polysorbate 20). Development is performed with 2,2′-azino-di-(3-ethylbenzthiazoline sulfonic acid), ABTS+H2O2 1/1000, 100 μl/well. Optical density is measured at 415 nm with a BIO-RAD, model 680, microplate reader. In each plate, preferably a negative contol is included, more preferably at least in triplicate. A preferred negative contol is serum from a human subject without detectable anti-TTd antibodies. Another preferred negative control is a solution of BSA. A peptide according to (ii) above is a peptide according to the invention if it is bound by antibodies in at least 40, 45, 50, 55, 60, 65, 70, 75, 80, 85, 87, 90, 91, 92, 93, 94, 95, 96, 97, 98, 99% most preferably 100% of the tested human serum samples. A peptide is considered to be bound by antibodies in a serum sample if the determined optical density for that particular serum sample is at least 2.0, more preferably 2.5, 3.0, 3.5 or more times higher as compared to the optical density that is determined for the negative control.\nStreptavidin coated 96 wells plates (Euro-Diagnostica) were blocked with PBS containing 5% BSA (200 μl/well, 1 h, room temperature). Plates were washed three times with PBS containing 0.05% TWEEN20® (polysorbate 20). Coating of the biotinylated peptides was performed by 1 h incubation at room temperature with 100 μl/well of a 2 μg/ml solution of the biotinylated peptide in PBS containing 1% BSA. Plates were washed three times with PBS containing 0.05% TWEEN20®. Wells were incubated for 1 h at room temperature with either 100 μl TETAQUIN® […] that had been diluted 800× with PBS containing 1% BSA or with 100 μl human serum that had been diluted 100× with PBS containing 1% BSA. Plates were washed three times with PBS containing 0.05% TWEEN20® (polysorbate 20). Each well was incubated for 1 h at room temperature with a HRP-conjugated IgG antibody (mouse anti-human IgG-HRP monoclonal, clone G18-145, cat no 555788, Becton Dickinson, 100 μl/well of a 1000× dilution in PBS containing 0.05% TWEEN20® (polysorbate 20)). Plates were washed three times with PBS containing 0.05% TWEEN20® (polysorbate 20). Development was performed with 2,2′-azino-di-(3-ethylbenzthiazoline sulfonic acid), ABTS+H2O2 1/1000, 100 μl/well. Optical density was measured at 415 nm with a BIO-RAD, model 680, microplate reader.\nThereafter, the inventors tested these 7 peptides on individual sera, because an epitope is needed to which every person makes antibodies."}, "[2]": {"tested_on": "antibodies in TETAQUIN® (anti-TTd antibodies)", "assay_type": "binding, human"}, "[3]": {"conditions": "Table 6, conservative substitutions scan of […]"}, "[4]": {"conditions": "Table 3, further length variants and Lys(formyl) variants, […], neg. control OD 0.30"}, "[5]": {"conditions": "Table 2, length variants of peptide β-32, section 'With linker', […] diluted 800x, OD at 415 nm"}, "[6]": {"conditions": "Table 2, length variants of peptide β-32, section 'Without linker' (sequence listed without Z O), […]"}}, "note": "“Also recorded” adds a separate entry of the source. Like-named read-outs stand apart in the source and are kept apart here. Square brackets hold non-standard residues; d marks the D form. Ends that are not written are not given here. * marks the point of attachment. Biotin = O=C1N[C@H]2[C@H](CS[C@H]2CCCCC(=O)*)N1; code O = not defined here; Ahx = NCCCCCC(=O)O", "data": [{"substance": "F I G I T E L K K L E S K I A K V F Z O (FIGITELKKLESKIAKVF[Ahx]K; not fully specified (residue 20)) [0942-24]", "values": [{"measurement": "ELISA OD SERUM 034960", "setting": "[1]; Table 5, Ala scan of […]", "value": 1.29}, {"measurement": "ELISA OD TETAQUIN", "setting": "[2]; Table 5, Ala scan of […]", "value": 1.37}]}, {"substance": "F I G I T E L K K L E S K I N A V F Z O (FIGITELKKLESKINAVF[Ahx]K; not fully specified (residue 20)) [0942-25]", "values": [{"measurement": "ELISA OD SERUM 034960", "setting": "[1]; Table 5, Ala scan of […]", "value": 1.28}, {"measurement": "ELISA OD TETAQUIN", "setting": "[2]; Table 5, Ala scan of […]", "value": 1.30}]}, {"substance": "F I G I T E L K K L E S K I N K A F Z O (FIGITELKKLESKINKAF[Ahx]K; not fully specified (residue 20)) [0942-26]", "values": [{"measurement": "ELISA OD SERUM 034960", "setting": "[1]; Table 5, Ala scan of […]", "value": 1.39}, {"measurement": "ELISA OD TETAQUIN", "setting": "[2]; Table 5, Ala scan of […]", "value": 1.24}]}, {"substance": "F I G I T E L K K L E S K I N K L F Z O (FIGITELKKLESKINKLF[Ahx]K; not fully specified (residue 20)) [0942-44]", "values": [{"measurement": "ELISA OD SERUM 034960", "setting": "[1]; [3]", "value": 1.47}, {"measurement": "ELISA OD TETAQUIN", "setting": "[2]; [3]", "value": 1.30}]}, {"substance": "F I G I T E L K K L E S K I N K V A Z O (FIGITELKKLESKINKVA[Ahx]K; not fully specified (residue 20)) [0942-27]", "values": [{"measurement": "ELISA OD SERUM 034960", "setting": "[1]; Table 5, Ala scan of […]", "value": 1.20}, {"measurement": "ELISA OD TETAQUIN", "setting": "[2]; Table 5, Ala scan of […]", "value": 1.26}]}, {"substance": "F I G I T E L K K L E S K I N K V F Z O [0942-09]", "values": [{"measurement": "ELISA OD SERUM 034960", "setting": "[1]; Table 5, Ala scan of […]", "value": 1.36}, {"measurement": "ELISA OD SERUM 034960", "setting": "[1]; [3]", "value": 1.36}, {"measurement": "OD", "setting": "[2]; [4]", "value": 2.30}, {"measurement": "ELISA OD TETAQUIN", "setting": "[2]; Table 5, Ala scan of […]", "value": 1.26}, {"measurement": "ELISA OD TETAQUIN", "setting": "[2]; [3]", "value": 1.26}]}, {"substance": "F I G I T E L K K L E S K I N K V Y Z O (FIGITELKKLESKINKVY[Ahx]K; not fully specified (residue 20); also: O: biotin modification, exact residue form not clear) [0942-45]", "values": [{"measurement": "ELISA OD SERUM 034960", "setting": "[1]; [3]", "value": 1.23}, {"measurement": "ELISA OD TETAQUIN", "setting": "[2]; [3]", "value": 1.11}]}, {"substance": "F I G I T E L K K L E S K I N R V F Z O (FIGITELKKLESKINRVF[Ahx]K(Biotin)) [0942-43]", "values": [{"measurement": "ELISA OD SERUM 034960", "setting": "[1]; [3]", "value": 1.31}, {"measurement": "ELISA OD TETAQUIN", "setting": "[2]; [3]", "value": 1.26}]}, {"substance": "F I G I T E L K K L E S K I Q K V F Z O (FIGITELKKLESKIQKVF[Ahx]K(Biotin)) [0942-42]", "values": [{"measurement": "ELISA OD SERUM 034960", "setting": "[1]; [3]", "value": 1.26}, {"measurement": "ELISA OD TETAQUIN", "setting": "[2]; [3]", "value": 1.41}]}, {"substance": "F I G I T E L K K L E S K L N K V F Z O (FIGITELKKLESKLNKVF[Ahx]K(Biotin)) [0942-41]", "values": [{"measurement": "ELISA OD SERUM 034960", "setting": "[1]; [3]", "value": 1.32}, {"measurement": "ELISA OD TETAQUIN", "setting": "[2]; [3]", "value": 1.11}]}, {"substance": "F I G I T E L K K L E S R I N K V F Z O (FIGITELKKLESRINKVF[Ahx]K(Biotin)) [0942-40]", "values": [{"measurement": "ELISA OD SERUM 034960", "setting": "[1]; [3]", "value": 1.27}, {"measurement": "ELISA OD TETAQUIN", "setting": "[2]; [3]", "value": 1.19}]}, {"substance": "F I G I T E L K K L E T K I N K V F Z O (FIGITELKKLETKINKVF[Ahx]K(Biotin)) [0942-39]", "values": [{"measurement": "ELISA OD SERUM 034960", "setting": "[1]; [3]", "value": 1.04}, {"measurement": "ELISA OD TETAQUIN", "setting": "[2]; [3]", "value": 0.88}]}, {"substance": "F I G I T E L K R L E S K I N K V F Z O (FIGITELKRLESKINKVF[Ahx]K(Biotin)) [0942-36]", "values": [{"measurement": "ELISA OD SERUM 034960", "setting": "[1]; [3]", "value": 1.23}, {"measurement": "ELISA OD TETAQUIN", "setting": "[2]; [3]", "value": 1.12}]}, {"substance": "S K F I G I T E Z O (SKFIGITE-{Ahx-code O}; reading uncertain) [P33]", "values": [{"measurement": "OD", "setting": "[2]; [5]", "value": 0.2}, {"measurement": "OD", "setting": "[2]; [6]", "value": 0.2}]}, {"substance": "SLTDLGGELCIKIKNEDLTFIAZO [β1]", "values": [{"measurement": "ELISA OD, effect of longer spacer and C- versus N-terminal biotinylation", "setting": "[2]", "value": 0.12}]}, {"substance": "T E L K K L E S K I N K V F Z O (TELKKLESKINKVF[Ahx]K(Biotin)) [0925-61]", "values": [{"measurement": "OD", "setting": "[2]; [4]", "value": 0.35}]}, {"substance": "T E L K K L E S K I Z O (TELKKLESKI-{Ahx-code O}; reading uncertain) [P22]", "values": [{"measurement": "OD", "setting": "[2]; [5]", "value": 0.2}, {"measurement": "OD", "setting": "[2]; [6]", "value": 0.2}]}, {"substance": "T E L K K L E S Z O (TELKKLES-{Ahx-code O}; reading uncertain) [P30]", "values": [{"measurement": "OD", "setting": "[2]; [5]", "value": 0.2}, {"measurement": "OD", "setting": "[2]; [6]", "value": 0.2}]}, {"substance": "TSYLSITFLRDFWGNPLRYDTEZO [β55]", "values": [{"measurement": "binding to TETAQUIN (screen of overlapping 22-mer TTx peptides)", "setting": "[2]; FIG. 3 (α-chain), FIG. 4 (β-chain)", "value": "good binding; also recorded: antibodies present"}]}]}
